Assay results as given in EP0804445B1, “METALLOCENIC […] DERIVATIVES, METHODS FOR THEIR PREPARATION AND PHARMACEUTICAL COMPOSITIONS CONTAINING SAME” (Modelisation et Mise au Point de Molecules Medicanales - …, priority 1994, dated 1996).

Assays:
lignée MCF-7P = experiment: MTT cytotoxicity test (cell viability); type: cell-based, humaines; conditions: MCF7-P variant cells; 5 days incubation with compound; MTT readout at 550 nm; calculated from points of Figures 1A, 1B and 2 between 5.10^-7 and 10^-5 moles/l; read-out: IC50 (µmole) MCF7-P
From the text: (§1) L'évaluation de la cytotoxicité des isomères "trans" et "cis" du 1-[4-(2-diméthylaminoéthoxy) phényl]-1-(4-hydroxyphényl)-2-ferrocényl-1-butène a fait l'objet de tests sur des lignées de cellules humaines dérivées d'une effusion pleurale d'un adénocarcinome mammaire (lignée MCF-7 ATCC HTB) ainsi que de l'un de ses variants (lignée MCF-7P).
(§2) Ces cellules ont été préalablement cultivées dans du milieu Dulbecco MEM additionné de 10% de sérum de veau foetal et en atmosphère humide (90% d'humidité relative) comprenant 5% de CO2. En phase exponentielle de croissance, ces cellules ont été trypsinées et repiquées dans des plaques de 24 puits de 1 ml à raison de 2.10^5 cellules par puits.
(§3) Après 3 jours d'incubation, les composés à tester ont été ajoutés aux doses appropriées et les plaques ont été mises à incuber pendant 5 jours.
(§4) A l'issue de cette incubation, la viabilité cellulaire des cultures a été déterminée à l'aide du test dit "MTT" consistant à ajouter dans chaque puits 20 µl d'une solution contenant 5 mg de bromure de (diméthyl-4,5-thiazol-2-yl)diphényl-2,5-tétrazolium (MTT) dans 1 ml de tampon PBS, et à laisser incuber les plaques pendant 1 heure à 37°C dans des conditions atmosphériques identiques à celles définies ci-dessus. Le MTT est métabolisé dans les cellules vivantes en un composé bleu insoluble (formazan).
(§5) A l'issue de cette incubation, les puits sont lavés à l'aide de PBS pour éliminer le MTT et les cristaux résiduels de formazan sont repris dans 1 ml de DMSO. La concentration en formazan pour chaque puits est lue par photométrie à une longueur d'onde de 550 nm et comparée à un témoin correspondant à du milieu incubé en présence de MTT mais en l'absence de cellules.

lignée MCF-7 ATCC HTB = experiment: MTT cytotoxicity test (cell viability); type: cell-based, humaines; conditions: MCF7 ATCC cells; 5 days incubation with compound; MTT readout at 550 nm; calculated from points of Figures 1A, 1B and 2 between 5.10^-7 and 10^-5 moles/l; read-out: IC50 (µmole) MCF7 ATCC
From the text: as §1, §2, §3, §4, §5

| SMILES | IC50 (lignée MCF-7P) | IC50 (lignée MCF-7 ATCC HTB) |
| --- | --- | --- |
| CCC(=C(c1ccc(O)cc1)c1ccc(OCCN(C)C)cc1)[c-]1cccc1.[Fe+2].c1cc[cH-]c1 [Dérivé "cis", 1-[4-(2-diméthylaminoéthoxy)phényl]-1-(4-hydroxyphényl)-2-ferrocényl-1-butène] | 5.6 µM | 3.4 µM |
| CCC(=C(c1ccc(O)cc1)c1ccc(OCCN(C)C)cc1)[c-]1cccc1.[Fe+2].c1cc[cH-]c1 [Dérivé "trans", 1-[4-(2-diméthylaminoéthoxy)phényl]-1-(4-hydroxyphényl)-2-ferrocényl-1-butène] | 2 µM | 4.9 µM |
